Results on 6 compounds are retold here after article PMC11494886, “Discovery and design of molecular glue enhancers of CDK12–DDB1 interactions for targeted degradation of cyclin K” (RSC Chemical Biology, 2024).

Usually Kd stands for the concentration at which binding is half-saturated. One may read the EC50 as the concentration that produces a half-maximal response.

The test system of experiment [1] is cyclin K. Put plainly: Immunofluorescence of nuclear cyclin K in MDA-MB-231 cells. It is filed as cell-based, human. The method, then: Cells were fixed with 4% PFA in PBS at room temperature, permeabilized with 0.1% Triton X-100 in PBS, and blocked with 3% BSA in PBS at room temperature. Cells were incubated with primary antibodies overnight at 4 °C, followed by incubation with Alexa-Fluor conjugated secondary antibodies for 1 hour at room temperature. Cell nuclei were stained using DAPI. Images were acquired on a confocal microscope (Leica). ImageJ and QuPath were used for image analysis.
Figure S8. Immunofluorescence staining for cyclin K degradation. MDA-MB-231 cells were
treated for 2 h with either DMSO or the indicated compounds (0.5 µM) . Cells were fixed and
Nuclei were stained with DAPI (blue). […]

The target of experiment [2] is T1, CDK12/cyclin K + DDB1 (Homo sapiens, UniProt Q16531+Q9NYV4, DEL396-705).
T1 construct: The kinase domain of human CDK12 (Uniprot: Q9NYV4; a.a; 715–1050); GST (N, cleaved yes); made in house; host or cells: Spodoptera frugiperda SF9 insect cells (Bac-to-Bac); CDK12/cyclin K co-infected with S. cerevisiae CAK1
T1 sequence (Q16531 with tags, fused parts or gaps DEL396-705): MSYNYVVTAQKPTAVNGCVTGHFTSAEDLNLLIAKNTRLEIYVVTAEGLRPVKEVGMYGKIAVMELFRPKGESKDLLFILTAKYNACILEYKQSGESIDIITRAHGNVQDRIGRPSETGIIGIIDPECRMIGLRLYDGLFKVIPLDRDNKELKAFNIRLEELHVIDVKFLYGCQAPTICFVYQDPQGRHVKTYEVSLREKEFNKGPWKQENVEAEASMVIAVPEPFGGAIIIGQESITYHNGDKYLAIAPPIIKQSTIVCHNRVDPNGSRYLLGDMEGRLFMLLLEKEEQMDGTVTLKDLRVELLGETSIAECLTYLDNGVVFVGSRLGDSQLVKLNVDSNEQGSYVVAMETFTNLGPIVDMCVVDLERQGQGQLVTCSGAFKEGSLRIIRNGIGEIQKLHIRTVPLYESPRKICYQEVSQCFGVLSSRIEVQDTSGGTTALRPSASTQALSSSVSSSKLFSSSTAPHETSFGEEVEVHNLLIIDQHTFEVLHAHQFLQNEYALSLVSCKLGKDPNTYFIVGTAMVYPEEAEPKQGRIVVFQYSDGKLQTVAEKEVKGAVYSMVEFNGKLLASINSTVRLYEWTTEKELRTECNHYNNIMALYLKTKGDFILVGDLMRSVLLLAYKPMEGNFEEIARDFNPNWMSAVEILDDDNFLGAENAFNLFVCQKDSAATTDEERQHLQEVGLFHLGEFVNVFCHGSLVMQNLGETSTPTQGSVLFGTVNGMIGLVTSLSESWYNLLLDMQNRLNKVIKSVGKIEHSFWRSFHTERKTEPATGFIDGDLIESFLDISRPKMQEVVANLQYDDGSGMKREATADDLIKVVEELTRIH
T1 sequence (Q9NYV4 715-1050, stated change not applied): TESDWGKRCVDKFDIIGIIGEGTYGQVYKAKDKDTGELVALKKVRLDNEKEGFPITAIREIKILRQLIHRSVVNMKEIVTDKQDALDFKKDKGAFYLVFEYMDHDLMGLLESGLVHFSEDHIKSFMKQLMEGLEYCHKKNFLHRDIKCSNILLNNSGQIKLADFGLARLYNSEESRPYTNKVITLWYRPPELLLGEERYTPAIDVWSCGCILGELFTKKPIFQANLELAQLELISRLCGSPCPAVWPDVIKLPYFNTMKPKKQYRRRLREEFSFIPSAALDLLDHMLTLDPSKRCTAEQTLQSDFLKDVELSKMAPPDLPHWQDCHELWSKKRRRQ
T1 sequence (O75909 11-267 partner limits assumed): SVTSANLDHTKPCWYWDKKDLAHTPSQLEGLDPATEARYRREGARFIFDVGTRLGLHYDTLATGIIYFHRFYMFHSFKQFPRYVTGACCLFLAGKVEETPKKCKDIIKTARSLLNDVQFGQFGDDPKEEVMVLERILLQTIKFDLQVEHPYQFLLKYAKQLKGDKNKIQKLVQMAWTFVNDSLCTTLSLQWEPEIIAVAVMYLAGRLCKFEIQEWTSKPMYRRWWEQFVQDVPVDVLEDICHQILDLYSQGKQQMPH
Description: Microscale thermophoresis, ternary complex formation. Format: binding. The note with it: MST. The method, then: Finally, the capacity of small molecules to induce a ternary complex between CDK12/cyclin K and DDB1 in vitro was assessed by microscale thermophoresis (MST). Labeled DDB1ΔBPB was combined with purified CDK12/cyclin K, and fluorescence intensity was monitored with increasing compound concentrations.
Cell pellets were harvested 48 hours post infection via centrifugation and lysed in buffer A (50 mM Tris–HCl (pH 8.0), 200 mM NaCl, 10 mM imidazole, 0.5 mM tris(2-carboxyethyl) phosphine (TCEP)) supplemented with EDTA-free Pierce™ protease inhibitor tablet (Thermo Fisher Scientific). […] The concentrated protein at 2 mg mL^−1 was flash-frozen in liquid nitrogen and stored at −80 °C.
Full-length S. cerevisiae CAK1 (Uniprot: P43568) with an N-terminal His6 tag was subcloned into pFastBac 1 vector. […] The eluted CDK12/cyclin K complex was concentrated to 2 mg mL^−1, flash-frozen in liquid nitrogen and stored at −80 °C.
A protocol to assess ternary binding of molecular glues with CDK12/cycK and DDB1 by MST was established using published procedures for PROTAC interaction with bromodomains and E3 ubiquitin ligases.[38] His8-DDB1-ΔBPB was labeled with the MO-L018 Monolith™ His-tag Labeling Kit RED-tris-NTA 2nd Generation (NanoTemper Technologies) following the instruction manual. 100 nM dye was mixed with 200 nM DDB1 in 50 mM HEPES pH 7.5, 150 mM NaCl, 5% glycerol, 0.05% Tween, and incubated at room temperature for 30 min. […] MST traces were recorded using standard parameters: 5 s MST power off, 30 s MST power on and 5 s MST power off. Measurements were taken at −1 to 0 s (cold region) and 9–10 s (hot region). Data were analyzed using a fitting function derived from the law of mass action:1 [drawing 6] where f(c) is the fluorescence signal (Fnorm) at a given ligand concentration (c), B is Fnorm of fully liganded DDB1 at high ligand concentrations, U is Fnorm of DDB1 alone at low ligand concentrations, Kd is the dissociation constant or binding affinity, cT is the final concentration of DDB1 in the assay (Fig. 3G). For normalization, the data were first transformed using eqn (2) where y is the fraction bound, followed by fitting to eqn (3) (Fig. 5B–E).2 [drawing 7] 3 [drawing 8]
(In general: Microscale thermophoresis detects binding through changes in fluorescence in a small temperature gradient.)

The test system of experiment [3] is cyclin K. Put plainly: Immunoblot of cyclin K levels in MDA-MB-231 cells. Format: cell-based, human. The note with it: SR-4835 500 nM, SR-4784 1-2 μM 2 hours, SR-4784-PAP 2 μM 2 hours. As for the experimental part:
THZ531 was used as a negative control as it is known to make a covalent bond with Cys1039 in a C-terminal extension of the kinase domain, thereby preventing this helix-loop-helix (HLH)-like fold from binding in a cleft between the DDB1 BPA and BPC domains (Fig. 1B, right panels). […] An immunofluorescence-based assay developed for visualizing loss of nuclear cyclin K also confirmed the above observations (Fig. 1H and Fig. S1, ESI ^†).
Total cell lysates were prepared using RIPA lysis buffer (Millipore Sigma) supplemented with protease and phosphatase inhibitors (Roche). Protein concentrations were estimated using the BCA protein assay kit (Pierce, Thermo Fisher Scientific). Equal amounts of proteins were separated using NuPAGE 4–12% Bis-Tris gels (Thermo Fisher Scientific). For CLICK chemistry pulldown experiments, proteins in the eluates were resolved using 3–8% Tris–acetate gels (Thermo Fisher Scientific). Proteins were transferred to nitrocellulose membranes using NuPAGE transfer buffer (Thermo Fisher Scientific). Membranes were blocked in LI-COR blocking buffer for 1 hour at room temperature and then probed with primary antibodies diluted in the same blocking buffer overnight at 4 °C. To detect the primary antibodies, membranes were incubated with IR-680 or IR-800 conjugated secondary antibodies (LI-COR) diluted in LI-COR blocking buffer at room temperature for 1 hour. Washes with 0.01% Tween-phosphate buffer were performed after primary and secondary antibody incubation steps. Signals from the membrane were recorded by scanning on a LI-COR Odyssey imager. Bands were quantified using Image Studio Lite (LI-COR Biosciences) or the ImageJ program.
To visualize the degradation of cyclin K, total cell lysates were subjected to SDS-PAGE and western blotting.

Experiment [4] concerns MDA-MB-231DDB1-shRNA cells. Put plainly: CellTiter-Glo viability assay, MDA-MB-231 DDB1-shRNA. It is filed as cell-based, human. The note with it: Homo sapiens; MDA-MB-231 DDB1-shRNA; read-out: EC50 (DDB1 shRNA) cell viability. The source says:
For stable genetic knock-down of DDB1 in cells, predesigned and validated TRC2-pLKO-puro shRNA plasmids for DDB1 (TRCN0000082855 and TRCN0000082856), and a non-targeting shRNA plasmid (SHC001) were obtained from Millipore Sigma. All plasmids were purified using the Qiagen Maxiprep kit (Qiagen). FuGENE HD 6 transfection reagent (Promega) was used for transfection of plasmids and lentiviral gene/shRNA constructs. Mission lentiviral packaging mix (Millipore Sigma) was used to package lentiviral plasmids into lentiviral particles in HEK293T cells, as per manufacturer's protocols. The resultant virus was concentrated using Vivaspin 20 centrifugal concentrators (Sartorius). MDA-MB-231 and HEK293T cells were transduced with lentivirus. Stable knocked down DDB1 (shDDB1-231 and shDDB1-HEK293T) cells were generated after selection with the antibiotic puromycin, and genetic knockdown was confirmed by western blotting.
(§1) Cell viability was measured by Cell Titer Glo assay kit (Promega, USA). EC50 was determined from the nonlinear regression and a four-parameter algorithm on the GraphPad Prism software.

Experiment [5] concerns MDA-MB-231 cells. Description: CellTiter-Glo viability assay, WT MDA-MB-231. Format: cell-based. The note with it: Homo sapiens; wild type MDA-MB-231; read-out: EC50 (WT) cell viability.
Text: MDA-MB-231 (human triple-negative breast cancer cells) and HEK293T (human embryonic kidney cells) were purchased from the American type culture collection (ATCC) and maintained in Dulbecco's modified Eagle's medium (DMEM) (Gibco) supplemented with 10% (v/v) heat-inactivated fetal bovine serum (FBS) (Gibco) and penicillin/streptomycin (100 U mL^−1 each). HiBiT-CCNK KI A549 cells, purchased from Promega, were maintained in F12 medium supplemented with 10% (v/v) heat-inactivated fetal bovine serum (FBS) (Gibco) and penicillin/streptomycin (100 U mL^−1 each). DDB1-knockdown MDA-MB-231 and DDB1-knockdown HEK293T cell lines were maintained in the same media formulation as their corresponding wild-type cell lines. All cell lines were cultured at 37 °C in an incubator with CO2 levels maintained at 5%.
as §1
(In general: ATP-based viability assays read luminescence as a measure of living cells.)

Setting [6] is: labeled DDB1 + CDK12/cyclin K, run #1, read-out: Kd ternary complex formation, replicate #1.
Where [7] appears, read: labeled DDB1 + CDK12/cyclin K, run #2, read-out: Kd ternary complex formation, replicate #2.
Where [8] appears, read: labeled DDB1 + CDK12/cyclin K, run #3, read-out: Kd ternary complex formation, replicate #3.
[9] abbreviates: labeled DDB1ΔBPB 10 nM + CDK12/cyclin K 1000 nM, mean of replicates, read-out: Kd ternary complex formation (average).

Where two headings read alike, the source gives them in different places.

`Cn1cc(-c2cnn3c(NCc4nc5cc(Cl)c(Cl)cc5[nH]4)nc(N4CCOCC4)nc23)cn1` [MR-1014, N-((5,6-Dichloro-1H-benzo[d]imidazol-2-yl)methyl)-8-(1-methyl-1H-pyrazol-4-yl)-2-morpholinopyrazolo[1,5-a][1,3,5]triazin-4-amine]: the “cyclin K nuclear intensity compared to control” value in experiment [1] (MDA-MB-231 cells, 0.5 µM, 2 h) is on record as “reduced”. Moreover, the Kd in experiment [2] (setting [6]) is 409 ± 117 nM; in experiment [2] (setting [7]) it was 347 ± 98.3 nM; in experiment [2] (setting [8]), 528 ± 295 nM; in experiment [2] (setting [9]), 428 nM.

On to `Clc1cccc2nc(CNc3cc(N4CCNCC4)nn4c(-c5ccsc5)cnc34)[nH]c12` [MR-1110, N-((7-Chloro-1H-benzo[d]imidazol-2-yl)methyl)-6-(piperazin-1-yl)-3-(thiophen-3-yl)imidazo[1,2-b]pyridazin-8-amine], for which the “cyclin K nuclear intensity compared to control” value in experiment [1] (MDA-MB-231 cells, 0.5 µM, 2 h) is listed as “reduced”. The Kd in experiment [2] (setting [6]) worked out at 24.3 ± 9 nM; in experiment [2] (setting [7]), 31.3 ± 17.4 nM; in experiment [2] (setting [8]), 37.6 ± 23.3 nM; in experiment [2] (setting [9]) it was 31.1 ± 6.7 nM.

With `CN1CC=C(c2cn3c(-c4cnn(C(F)F)c4)cnc3c(NCc3nc4cc(Cl)c(Cl)cc4[nH]3)n2)CC1` [MR-1187, N-((5,6-Dichloro-1H-benzo[d]imidazol-2-yl)methyl)-3-(1-(difluoromethyl)-1H-pyrazol-4-yl)-6-(1-methyl-1,2,3,6-tetrahydropyridin-4-yl)imidazo[1,2-a]pyrazin-8-amine], the “cyclin K nuclear intensity compared to control” value in experiment [1] (MDA-MB-231 cells, 0.5 µM, 2 h) is reported as “reduced”. The Kd in experiment [2] (setting [6]) was found to be 137 ± 33.3 nM; in experiment [2] (setting [7]), 122 ± 54.6 nM; in experiment [2] (setting [8]) it was 152 ± 63.7 nM; in experiment [2] (setting [9]), 137 ± 15 nM.

Consider `Cn1cc(-n2cnc3c(NCc4nc5cc(Cl)c(Cl)cc5[nH]4)nc(N4CCNCC4)nc32)cn1` [SR-4784, N-((5,6-dichloro-1H-benzo[d]imidazol-2-yl)methyl)-9-(1-methyl-1H-pyrazol-4-yl)-2-(piperazin-1-yl)-9H-purin-6-amine], for which the “cyclin K degradation (immunoblot)” value in experiment [3] is listed as “induced cyclin K degradation”. In addition, the EC50 in experiment [4] is 796 nM; in experiment [5], 263 nM.

As for `C#CCCC1(CCC(=O)N2CCN(c3nc(NCc4nc5cc(Cl)c(Cl)cc5[nH]4)c4ncn(-c5cnn(C)c5)c4n3)CC2)N=N1` [SR-4784-PAP, 3-(3-(But-3-yn-1-yl)-3H-diazirin-3-yl)-1-(4-(6-(((5,6-dichloro-1H-benzo[d]imidazol-2-yl)methyl)amino)-9-(1-methyl-1H-pyrazol-4-yl)-9H-purin-2-yl)piperazin-1-yl)propan-1-one], the “cyclin K degradation (immunoblot)” value in experiment [3] is recorded as “degraded cyclin K in a proteasome-dependent manner”.

In the case of `CCc1cnn2c(NCc3ccc[n+]([O-])c3)cc(N3CCCC[C@H]3CCO)nc12` [dinaciclib, reference compound], the “cyclin K nuclear intensity compared to control” value in experiment [1] is recorded as “not affected”. Moreover, in experiment [2] (labeled DDB1ΔBPB + CDK12/cyclin K), the “ability to induce ternary complex” value is recorded as “lacked the ability to induce a ternary complex”.
